Patent US20100267561A1, “HERBICIDAL PYRIDAZINONE DERIVATIVES” (priority 2007, published 2010)

Columns and labels:
Assay type in all cases: in vivo
[1] = tested on: umbrella sedge (Cyperus difformis); assay: Test B flooded paddy test plant response
Summary of the method: (§1)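 Compounds were added directly to paddy water over 2-leaf-stage plants in pots flooded 3 cm above soil, water depth maintained. Visual injury scored against controls after 13 to 15 days in greenhouse, 0 (none) to 100 (complete control); dash indicates no result.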

[2] = tested on: barnyardgrass (Echinochloa crus-galli); assay: Test B flooded paddy test plant response
Summary of the method: as §1

[3] = tested on: ducksalad (Heteranthera limosa); assay: Test B flooded paddy test plant response
Summary of the method: as §1

[4] = tested on: rice (Oryza sativa); assay: Test B flooded paddy test plant response
Summary of the method: as §1

[5] = tested on: chickweed (Stellaria media); assay: Test B postemergence plant response; conditions: for Chickweed plant response rating: 8 g ai/ha, postemergence, 0-100 scale; for Plant response rating, Chickweed: Postemergence
Summary of the method: (§2)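 Compounds applied after emergence to 2–18 cm plants; response read visually 13–15 days later on 0 (none) to 100 (complete control); a dash marks no result.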

[6] = tested on: windgrass (Apera spica-venti); assay: Test B postemergence plant response; conditions: for Windgrass plant response rating: 8 g ai/ha, postemergence, 0-100 scale; for Plant response rating, Windgrass: Postemergence
Summary of the method: as §2

[7] = tested on: winter barley (Hordeum vulgare); assay: Test B postemergence plant response; conditions: for Barley plant response rating: 8 g ai/ha, postemergence, 0-100 scale; for Plant response rating, Barley: Postemergence, scale 0 to 100, 0 no effect, 100 complete control
Summary of the method: as §2

[8] = tested on: canarygrass (Phalaris minor); assay: Test B postemergence plant response; conditions: for Canarygrass plant response rating: 8 g ai/ha, postemergence, 0-100 scale; for Plant response rating, Canarygrass: Postemergence
Summary of the method: as §2

[9] = tested on: large crabgrass (Digitaria sanguinalis); assay: Test A pre-/postemergence plant response
Summary of the method: (§3)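 Both pre- and postemergence treatment given concurrently; postemergence seedlings measured 2–10 cm at the one- to two-leaf stage. Visual injury, 0–100 scale versus untreated, at ~10 days.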

[10] = tested on: barnyardgrass (Echinochloa crus-galli); assay: Test A pre-/postemergence plant response
Summary of the method: as §3

[11] = tested on: morningglory (Ipomoea coccinea); assay: Test A pre-/postemergence plant response
Summary of the method: as §3

[12] = tested on: velvetleaf (Abutilon theophrasti); assay: Test A pre-/postemergence plant response
Summary of the method: as §3

[13] = tested on: pigweed (Amaranthus retroflexus); assay: Test A pre-/postemergence plant response
Summary of the method: as §3

[14] = tested on: wheat (Triticum aestivum); assay: Test A pre-/postemergence plant response
Summary of the method: as §3

[15] = Flood (flooded paddy test), 62 g ai/ha, scale 0 to 100, 0 no effect, 100 complete control
[16] = Flood (flooded paddy test), 125 g ai/ha, scale 0 to 100, 0 no effect, 100 complete control
[17] = Flood (flooded paddy test), 250 g ai/ha, scale 0 to 100, 0 no effect, 100 complete control
[18] = Flood, 31 g ai/ha, scale 0 to 100
[19] = 62 g ai/ha, scale 0 to 100, 0 no effect, 100 complete control
[20] = Postemergence, 31 g ai/ha, 0 to 100 scale, 0 no effect, 100 complete control
[21] = Postemergence, 125 g ai/ha, 0 to 100 scale, 0 no effect, 100 complete control
[22] = Preemergence, 31 g ai/ha, 0 to 100 scale, 0 is no effect, 100 is complete control
[23] = Preemergence, 125 g ai/ha, 0 to 100 scale (0 no effect, 100 complete control)

CCOC(=O)Oc1cnn(C)c(=O)c1-n1nc(-c2ccc(Cl)cc2)cc1C [Compound 53]
60: Plant response rating, Windgrass [6, 19]
30: Plant response rating, Rice [4, 17]
80: Plant response rating, Crabgrass, Large [9, 20]
50: Plant response rating, Ducksalad [3, 16] | Plant response rating, Ducksalad [3, 17] | Plant response rating, Wheat [14, 22]
40: Plant response rating, Sedge, Umbrella [1, 16] | Plant response rating, Barnyardgrass [2, 17] | Plant response rating, Windgrass ([6]; 31 g ai/ha, scale 0 to 100)
0: Plant response rating, Sedge, Umbrella [1, 15] | Plant response rating, Sedge, Umbrella [1, 18] | Plant response rating, Barnyardgrass [2, 15] | Plant response rating, Barnyardgrass [2, 16] | Plant response rating, Barnyardgrass [2, 18] | Plant response rating, Ducksalad [3, 15] | Plant response rating, Ducksalad [3, 18] | Plant response rating, Rice [4, 15] | Plant response rating, Rice [4, 16] | Plant response rating, Rice [4, 18] | Chickweed plant response rating [5] | Plant response rating, Chickweed ([5]; 16 g ai/ha, scale 0 to 100) | Plant response rating, Chickweed ([5]; 31 g ai/ha, scale 0 to 100) | Plant response rating, Chickweed [5, 19] | Windgrass plant response rating [6] | Barley plant response rating [7] | Plant response rating, Barley ([7]; 16 g ai/ha) | Plant response rating, Barley ([7]; 31 g ai/ha) | Plant response rating, Barley ([7]; 62 g ai/ha) | Canarygrass plant response rating [8] | Plant response rating, Canarygrass ([8]; 16 g ai/ha, scale 0 to 100) | Plant response rating, Canarygrass ([8]; 31 g ai/ha, scale 0 to 100) | Plant response rating, Canarygrass [8, 19] | Plant response rating, Morningglory [11, 20] | Plant response rating, Morningglory [11, 22] | Plant response rating, Morningglory [11, 23] | Plant response rating, Velvetleaf [12, 20] | Plant response rating, Velvetleaf [12, 21] | Plant response rating, Velvetleaf [12, 22] | Plant response rating, Velvetleaf [12, 23] | Plant response rating, Pigweed [13, 20] | Plant response rating, Pigweed [13, 21] | Plant response rating, Pigweed [13, 22] | Plant response rating, Pigweed [13, 23]
90: Plant response rating, Crabgrass, Large [9, 22] | Plant response rating, Barnyardgrass [10, 20] | Plant response rating, Wheat [14, 23]
70: Plant response rating, Sedge, Umbrella [1, 17] | Plant response rating, Wheat [14, 21]
100: Plant response rating, Crabgrass, Large [9, 21] | Plant response rating, Crabgrass, Large [9, 23] | Plant response rating, Barnyardgrass [10, 21] | Plant response rating, Barnyardgrass [10, 22] | Plant response rating, Barnyardgrass [10, 23]
20: Plant response rating, Windgrass ([6]; 16 g ai/ha, scale 0 to 100) | Plant response rating, Morningglory [11, 21] | Plant response rating, Wheat [14, 20]

Cc1cc(-c2ccc(Cl)cc2)nn1-c1c(OC(=O)Oc2ccccc2)cnn(C)c1=O [Compound 54]
20: Plant response rating, Barnyardgrass [2, 15] | Plant response rating, Windgrass ([6]; 16 g ai/ha, scale 0 to 100) | Plant response rating, Windgrass ([6]; 31 g ai/ha, scale 0 to 100) | Plant response rating, Morningglory [11, 23]
60: Plant response rating, Crabgrass, Large [9, 22] | Plant response rating, Wheat [14, 21] | Plant response rating, Wheat [14, 23]
100: Plant response rating, Crabgrass, Large [9, 23] | Plant response rating, Barnyardgrass [10, 21] | Plant response rating, Barnyardgrass [10, 23]
15: Plant response rating, Rice [4, 15]
30: Plant response rating, Wheat [14, 20]
90: Plant response rating, Crabgrass, Large [9, 21]
70: Plant response rating, Crabgrass, Large [9, 20] | Plant response rating, Barnyardgrass [10, 22]
0: Plant response rating, Sedge, Umbrella [1, 15] | Plant response rating, Sedge, Umbrella [1, 17] | Plant response rating, Ducksalad [3, 15] | Plant response rating, Ducksalad [3, 17] | Chickweed plant response rating [5] | Plant response rating, Chickweed ([5]; 16 g ai/ha, scale 0 to 100) | Plant response rating, Chickweed ([5]; 31 g ai/ha, scale 0 to 100) | Plant response rating, Chickweed [5, 19] | Windgrass plant response rating [6] | Barley plant response rating [7] | Plant response rating, Barley ([7]; 16 g ai/ha) | Plant response rating, Barley ([7]; 31 g ai/ha) | Plant response rating, Barley ([7]; 62 g ai/ha) | Canarygrass plant response rating [8] | Plant response rating, Canarygrass ([8]; 16 g ai/ha, scale 0 to 100) | Plant response rating, Canarygrass ([8]; 31 g ai/ha, scale 0 to 100) | Plant response rating, Canarygrass [8, 19] | Plant response rating, Morningglory [11, 20] | Plant response rating, Morningglory [11, 21] | Plant response rating, Morningglory [11, 22] | Plant response rating, Velvetleaf [12, 20] | Plant response rating, Velvetleaf [12, 21] | Plant response rating, Velvetleaf [12, 22] | Plant response rating, Velvetleaf [12, 23] | Plant response rating, Pigweed [13, 20] | Plant response rating, Pigweed [13, 21] | Plant response rating, Pigweed [13, 22] | Plant response rating, Pigweed [13, 23] | Plant response rating, Wheat [14, 22]
80: Plant response rating, Barnyardgrass [2, 17] | Plant response rating, Rice [4, 17] | Plant response rating, Windgrass [6, 19] | Plant response rating, Barnyardgrass [10, 20]

CCCC(=O)Oc1cnn(C)c(=O)c1-n1nc(-c2ccc(Cl)cc2)cc1C [Compound 56]
70: Plant response rating, Sedge, Umbrella [1, 18] | Plant response rating, Crabgrass, Large [9, 22] | Plant response rating, Wheat [14, 20]
0: Plant response rating, Barnyardgrass [2, 15] | Plant response rating, Barnyardgrass [2, 18] | Plant response rating, Ducksalad [3, 15] | Plant response rating, Ducksalad [3, 18] | Plant response rating, Rice [4, 15] | Plant response rating, Rice [4, 16] | Plant response rating, Rice [4, 18] | Chickweed plant response rating [5] | Plant response rating, Chickweed ([5]; 16 g ai/ha, scale 0 to 100) | Plant response rating, Chickweed ([5]; 31 g ai/ha, scale 0 to 100) | Plant response rating, Chickweed [5, 19] | Windgrass plant response rating [6] | Plant response rating, Windgrass ([6]; 16 g ai/ha, scale 0 to 100) | Barley plant response rating [7] | Plant response rating, Morningglory [11, 20] | Plant response rating, Morningglory [11, 21] | Plant response rating, Morningglory [11, 22] | Plant response rating, Morningglory [11, 23] | Plant response rating, Velvetleaf [12, 20] | Plant response rating, Velvetleaf [12, 21] | Plant response rating, Velvetleaf [12, 22] | Plant response rating, Velvetleaf [12, 23] | Plant response rating, Pigweed [13, 20] | Plant response rating, Pigweed [13, 21] | Plant response rating, Pigweed [13, 22] | Plant response rating, Pigweed [13, 23]
85: Plant response rating, Sedge, Umbrella [1, 16] | Plant response rating, Sedge, Umbrella [1, 17] | Plant response rating, Canarygrass ([8]; 16 g ai/ha, scale 0 to 100)
60: Plant response rating, Barnyardgrass [2, 17]
75: Plant response rating, Sedge, Umbrella [1, 15] | Plant response rating, Ducksalad [3, 17] | Plant response rating, Barley ([7]; 62 g ai/ha)
100: Plant response rating, Crabgrass, Large [9, 21] | Plant response rating, Crabgrass, Large [9, 23] | Plant response rating, Barnyardgrass [10, 20] | Plant response rating, Barnyardgrass [10, 21] | Plant response rating, Barnyardgrass [10, 23]
20: Plant response rating, Barnyardgrass [2, 16] | Plant response rating, Windgrass ([6]; 31 g ai/ha, scale 0 to 100) | Plant response rating, Windgrass [6, 19] | Plant response rating, Wheat [14, 22]
10: Plant response rating, Rice [4, 17]
40: Plant response rating, Ducksalad [3, 16] | Plant response rating, Barley ([7]; 16 g ai/ha)
80: Plant response rating, Crabgrass, Large [9, 20] | Plant response rating, Barnyardgrass [10, 22] | Plant response rating, Wheat [14, 21] | Plant response rating, Wheat [14, 23]
90: Plant response rating, Canarygrass ([8]; 31 g ai/ha, scale 0 to 100)
50: Plant response rating, Barley ([7]; 31 g ai/ha) | Canarygrass plant response rating [8]
95: Plant response rating, Canarygrass [8, 19]
